Laboratory results taken from patent US12162858B2, “Quinoline derivatives as inhibitors of AXL/MER RTK and CSF1R” (QURIENT CO., LTD., priority 2018, dated 2024).
Read-outs that look alike come from different tables or passages of the source.

What was measured:
CSF1R = CSF1R (Homo sapiens, UniProt P07333); assay: KINOMEscan competition binding assay for CSF1R; parameters: DNA tag for qPCR (not a peptide); host or cells: E. coli/T7 phage or HEK-293; settings: for Kd: read-out: CSF1R kinase binding activity (Kd)
Procedure, shortened: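 Values are either % inhibition at 0.1 uM, relative to DMSO (100% Ctrl) and a control compound (0% Ctrl), or Kd from an 11-point 3-fold series fitted with Hill slope −1. DNA-tagged kinase binds immobilized ligand beads with compound for 1 h at room temperature, and eluted kinase is measured by qPCR.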

CSF1R (M-NFS-60 cells) = assay: Cell Titer-Glo viability assay using M-NFS-60 cells; format: cell-based; settings: Mus musculus, read-out: Cellular CSF1R activity by M-NFS-60 viability assay (IC50 activity range)
Procedure, shortened: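 M-NFS-60 cells grown with 62 ng/ml recombinant human M-CSF, seeded at 2×10^5 cells/well and incubated at 37 °C/5% CO2. Compounds given as 3-fold serial dilutions (10 doses); viability read by CellTiter-Glo luminescence, sigmoidal dose-response fit.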

[1] = read-out: CSF1R kinase binding activity, Percent (%) inhibition
[2] = read-out: CSF1R kinase binding activity, Range

CSF1R, sequence (P07333 20-972): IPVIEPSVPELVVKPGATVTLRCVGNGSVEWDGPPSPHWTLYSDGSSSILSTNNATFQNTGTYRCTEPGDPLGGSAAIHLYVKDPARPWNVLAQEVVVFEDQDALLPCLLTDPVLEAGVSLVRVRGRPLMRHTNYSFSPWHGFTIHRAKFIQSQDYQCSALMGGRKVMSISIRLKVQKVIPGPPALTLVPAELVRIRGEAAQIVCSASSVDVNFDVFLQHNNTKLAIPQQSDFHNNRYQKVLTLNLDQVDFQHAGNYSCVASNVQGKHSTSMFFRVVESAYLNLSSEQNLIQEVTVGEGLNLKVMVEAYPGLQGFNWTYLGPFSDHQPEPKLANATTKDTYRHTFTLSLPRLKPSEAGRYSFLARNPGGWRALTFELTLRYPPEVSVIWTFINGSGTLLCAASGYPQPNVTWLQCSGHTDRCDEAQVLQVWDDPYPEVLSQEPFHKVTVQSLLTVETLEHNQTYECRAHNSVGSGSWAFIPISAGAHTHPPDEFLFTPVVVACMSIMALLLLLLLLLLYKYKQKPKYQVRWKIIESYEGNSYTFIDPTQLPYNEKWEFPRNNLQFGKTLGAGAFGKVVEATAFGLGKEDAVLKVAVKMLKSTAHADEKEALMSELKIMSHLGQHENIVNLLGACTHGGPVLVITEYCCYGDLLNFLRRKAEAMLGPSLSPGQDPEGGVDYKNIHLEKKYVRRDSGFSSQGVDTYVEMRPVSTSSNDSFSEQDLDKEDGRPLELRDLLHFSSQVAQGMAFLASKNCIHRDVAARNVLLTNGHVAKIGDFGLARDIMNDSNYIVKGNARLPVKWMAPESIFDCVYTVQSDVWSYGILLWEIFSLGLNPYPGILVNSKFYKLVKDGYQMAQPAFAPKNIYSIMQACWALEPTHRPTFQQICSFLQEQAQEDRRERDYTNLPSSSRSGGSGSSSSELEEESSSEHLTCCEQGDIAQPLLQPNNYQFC

| inhibition at 0.1 µM (CSF1R; [1]) [%] | inhibition at 0.1 µM (CSF1R; [2]) [%] | Kd (CSF1R) [µM] | Structure (SMILES) | IC50 (CSF1R (M-NFS-60 cells)) [µM] |
| --- | --- | --- | --- | --- |
| 96 | ≥ 80 |  | COc1cc2nccc(Oc3ccc(NC(=O)c4nn(CCO)cc4OCC(F)(F)F)c(F)c3)c2cc1OC [Compound 46] | 1 to 10 |
| 90 | ≥ 80 |  | COc1cc2nccc(Oc3ccc(NC(=O)c4nn(C5CC5)cc4OCCC(F)(F)F)nc3)c2cc1OC [Compound 170] | < 1 |
| 66 | 50 to 80 |  | COCCn1cc(OCC(F)(F)F)c(C(=O)Nc2ccc(Oc3ccnc4cc(OC)c(OC)cc34)cc2F)n1 [Compound 49] | 1 to 10 |
| 76 | 50 to 80 |  | COc1cc2nccc(Oc3ccc(NC(=O)c4nn(CC(C)C)cc4OCC(F)(F)F)cc3C)c2cc1OC [Compound 58] | 1 to 10 |
| 97 | ≥ 80 |  | COc1cc2nccc(Oc3ccc(NC(=O)c4nn(CC5CC5)cc4OCC(F)(F)F)nc3)c2cc1OC [Compound 41] | < 1 |
| 82 | ≥ 80 |  | COc1cc2nccc(Oc3ccc(NC(=O)c4nn(CCO)cc4OCC(F)(F)F)cc3F)c2cc1OC [Compound 51] | < 1 |
| 79 | 50 to 80 |  | COc1cc2nccc(Oc3ccc(NC(=O)c4nn(C5CCNC5)cc4OCC(F)(F)F)nc3)c2cc1OC (stereo not drawn) [Compound 70] | 1 to 10 |
| 97 | ≥ 80 |  | COc1cc2nccc(Oc3ccc(NC(=O)c4nn(C5CCCC5)cc4OCC(F)(F)F)cc3C)c2cc1OC [Compound 57] | < 1 |
| 96 | ≥ 80 |  | COc1cc2nccc(Oc3ccc(NC(=O)c4nn(CC5CCNC5)cc4OCC(F)(F)F)nc3)c2cc1OC (stereo not drawn) [Compound 72] | 1 to 10 |
| 94 | ≥ 80 |  | COc1cc2nccc(Oc3ccc(NC(=O)c4nn(CC(C)O)cc4OCC(F)(F)F)c(F)c3)c2cc1OC (stereo not drawn) [Compound 76] | 1 to 10 |
| 60 | 50 to 80 |  | COc1cc2nccc(Oc3ccc(NC(=O)c4nn(C5CCOC5)cc4OCC(F)(F)F)cc3F)c2cc1OC (stereo not drawn) [Compound 55] | 1 to 10 |
| 96 | ≥ 80 |  | COc1cc2nccc(Oc3ccc(NC(=O)c4nn(C5COC5)cc4OCC(F)(F)F)nc3)c2cc1OC [Compound 66] | 1 to 10 |
| 82 | ≥ 80 |  | COc1cc2nccc(Oc3ccc(NC(=O)c4nn(CC(C)C)cc4OCC(F)(F)F)c(F)c3)c2cc1OC [Compound 48] | < 1 |
| 84 | ≥ 80 |  | COc1cc2nccc(Oc3ccc(NC(=O)c4nn(CCC(F)(F)F)cc4OCC4CCC4)nc3)c2cc1OC [Compound 166] | 1 to 10 |
| 40 | < 50 |  | COc1cc2nccc(Oc3ccc(NC(=O)c4nc(CCC(F)(F)F)oc4CCC4CCC4)nc3)c2cc1OC [Compound 176] | 1 to 10 |
| 97 | ≥ 80 |  | COc1cc2nccc(Oc3ccc(NC(=O)c4nn(CC(C)O)cc4OCC(F)F)nc3)c2cc1OC (stereo not drawn) [Compound 175] | < 1 |
| 81 | ≥ 80 |  | COCCn1cc(OCC(F)(F)F)c(C(=O)Nc2ccc(Oc3ccnc4cc(OC)c(OC)cc34)c(F)c2)n1 [Compound 54] | < 1 |
| 93 | ≥ 80 |  | COc1cc2nccc(Oc3ccc(NC(=O)c4nn(CC5CCN(C)C5)cc4OCC(F)(F)F)nc3)c2cc1OC (stereo not drawn) [Compound 169] | < 1 |
| 96 | ≥ 80 |  | COc1cc2nccc(Oc3ccc(NC(=O)c4nn(CC(C)N)cc4OCC(F)(F)F)nc3)c2cc1OC (stereo not drawn) [Compound 63] | 1 to 10 |

Continued, compound first:

| Structure (SMILES) | inhibition at 0.1 µM (CSF1R; [1]) [%] | inhibition at 0.1 µM (CSF1R; [2]) [%] | Kd (CSF1R) [µM] | IC50 (CSF1R (M-NFS-60 cells)) [µM] |
| --- | --- | --- | --- | --- |
| CCn1nc(C(=O)Nc2ccc(Oc3ccnc4cc(OC)c(OC)cc34)cn2)c(OCC(F)(F)F)c1C [Compound 1] | 96 | ≥ 80 | < 0.1 | < 1 |
| CCCn1cc(OC(C)C)c(C(=O)Nc2ccc(Oc3ccnc4cc(OC)c(OC(F)(F)F)cc34)c(F)c2)n1 [Compound 35] | 6 | < 50 |  | 1 to 10 |
| COc1cc2nccc(Oc3ccc(NC(=O)c4nn(CCCO)cc4OCC(F)(F)F)nc3)c2cc1OC [Compound 18] | 97 | ≥ 80 |  | < 1 |
| CCCn1cc(OCC(F)(F)F)c(C(=O)Nc2ccc(Oc3ccnc4cc(OC)c(OC)cc34)c(F)c2)n1 [Compound 25] | 87 | ≥ 80 |  | 1 to 10 |
| COc1cc2nccc(Oc3ccc(NC(=O)c4nn(C)cc4OCC(F)(F)F)cc3C)c2cc1OC [Compound 37] | 97 | ≥ 80 |  | < 1 |
| CCCn1cc(OCC(F)(F)F)c(C(=O)Nc2ccc(Oc3ccnc4cc(OC)c(OC)cc34)c(C)c2)n1 [Compound 26] | 94 | ≥ 80 |  | 1 to 10 |
| COc1cc2nccc(Oc3ccc(NC(=O)c4nn(C5CCOC5)cc4OCC(F)(F)F)nc3)c2cc1OC (stereo not drawn) [Compound 13] | 98 | ≥ 80 | < 0.1 | < 1 |
| COc1cc2nccc(Oc3ccc(NC(=O)c4nn(C[C@H](C)O)cc4OCC(F)(F)F)nc3)c2cc1OC [Compound 30] | 99 | ≥ 80 |  | < 1 |
| COc1cc2nccc(Oc3ccc(NC(=O)c4nn(C)cc4OCC(F)(F)F)nc3)c2cc1OC [Compound 33] | 98 | ≥ 80 |  | < 1 |
| CCCn1cc(OCCF)c(C(=O)Nc2ccc(Oc3ccnc4cc(OC)c(OC)cc34)cn2)n1 [Compound 14] | 98 | ≥ 80 | < 0.1 | < 1 |
| COc1cc2nccc(Oc3ccc(NC(=O)c4nn(C5CCC5)cc4OCC(F)(F)F)nc3)c2cc1OC [Compound 24] | 96 | ≥ 80 |  | < 1 |
| COc1cc2nccc(Oc3ccc(NC(=O)c4nn(CCC#N)cc4OCC(F)(F)F)nc3)c2cc1OC [Compound 39] | 97 | ≥ 80 |  | < 1 |
| CCCn1cc(OCCC(F)(F)F)c(C(=O)Nc2ccc(Oc3ccnc4cc(OC)c(OC)cc34)cn2)n1 [Compound 31] | 95 | ≥ 80 |  | < 1 |
| CCC(=O)n1cc(OCC(F)(F)F)c(C(=O)Nc2ccc(Oc3ccnc4cc(OC)c(OC)cc34)cn2)n1 [Compound 20] | 99 | ≥ 80 |  | < 1 |
